Data published in US20240173353A1, “UNIVERSAL CHIMERIC ANTIGEN RECEPTOR T-CELL AND APPLICATION THEREOF” (SHANGHAI IASO BIOTECHNOLOGY CO., LTD., priority 2021, published 2024).
Read-outs that look alike come from different tables or passages of the source.

How the values were obtained:
anti-CD19-CAR-T cells = test: CD107a translocation of anti-CD19-CAR-T cells co-incubated with target cells; type: cell-based, human; conditions: LCK-sgRNA16 editing group (43% T316I), 100 nM dasatinib 12 hr, Nalm6 target cells
Excerpt: First, the inventors edited the prepared anti-CD19 CAR-T by electroporation with the CBE3 protein, the RNP complex of CBE3 and LCK-sgRNA12, and the RNP complex of CBE3 and LCK-sgRNA16 respectively, to achieve three different editing treatments.

[1] = system: CD19/BCMA bispecific CAR-T cells; test: CD107a translocation of CD19/BCMA bispecific CAR-T cells; type: cell-based, human; conditions: CAR-T cells with LCK-T316I mutation, 100 nM dasatinib 12 hr, U266B1 and Raji
Excerpt: The inventors edited the prepared CD19/BCMA dual-target CAR-T by electroporation with the CBE3 protein, the RNP complexes (18 nt and 21 nt) of CBE3 and LCK-sgRNA12, and the RNP complexes (18 nt and 21 nt) of CBE3 and LCK-sgRNA16 respectively, to achieve three different groups of editing treatments. […] These target cells include U266B1 (BCMA positive), Raji (CD19 positive), K562 (negative control), allogeneic T cells (negative control) and blank Buffer control (negative control).

NK cells = test: CD107a release of NK cells activated by K562; type: cell-based, human
Procedure: The inventor used Miltenyi human NK sorting magnetic beads to separate NK cells from human peripheral blood, and used DAKEWE NK medium to culture and expand them in vitro. On Day 8, a population of NK cells with more than 95% having positive CD56 expression could be obtained. These NK cells were taken out and treated with 0 nM, 100 nM and 200 nM dasatinib respectively for 24 hr, and then divided into two groups, one of which was not activated, and the other group was stimulated with MHC-class I molecule-deficient K562 cells for 5 hr. Then, the CD107a release of NK cells were detected in both of them.
The inventors isolated NK cells from human PBMCs, and then cultured and differentiated them in NK medium to obtain CD56-positive NK cells with a purity higher than 95%. The exploration of the threshold of NK activation with dasatinib was carried out with seven concentrations in the range of 0-50 nM, namely 0, 10, 20, 25, 30, 40 and 50 nM, and the treatment was carried out overnight. The next day, the cells were resuspended with NK medium and activated with K562. Lymphocyte activator was used as a positive control for activation, and a part of NK cells that were not activated by K562 were also kept. Two replicates were set for each group. anti-CD107a antibody and monensin were added while carrying out activation, and after co-incubation for 6 hr, the CD107a release of CD56-positive NK cells was detected by flow cytometry.
The inventors isolated NK cells from human PBMCs, and then cultured and differentiated them in NK medium to obtain CD56-positive NK cells with a purity higher than 95%. Three pretreatments were done respectively (1) absence of dasatinib pretreatment; (2) pretreatment with […] pretreatment with 50 nM dasatinib, and the cells were cultured overnight. The next day, the concentration of dasatinib was reduced, and the concentration was adjusted to 0, 7.5, 12.5, 17.5 and 25 nM respectively. […] Two replicates were set for each group.
In order to repeatedly verify that the inhibition of NK cell activation function by dasatinib has an extended effect, the inventors repeated the above experiment. […] After 4 hr of co-incubation, CD107a release from CD56 positive NK cells was detected.
The inventors used CD3-negative cells in human PBMCs, which contained more than 5% of CD56-positive NK cells. […] The next day, the cells were resuspended with NK medium and activated with K562. Lymphocyte activator was used as a positive control for activation, and a part of NK cells that were not activated by K562 were also kept. Two replicates were set for each group. anti-CD107a antibody and monensin were added while carrying out activation, and after co-incubation for 6 hr, the CD107a release of CD56-positive NK cells was detected by flow cytometry.
The inventors isolated NK cells from human PBMCs, and then cultured and differentiated them in NK medium to obtain CD56-positive NK cells with a purity higher than 95%. […] Two replicates were set for each group.

T cells = test: UCAR-T preparation process with dasatinib added after editing; type: cell-based, human; conditions: experimental group, 100 nM DS added after editing
Procedure: The inventors isolated CD3-positive T cells from PBMCs from three different donors using PanT kits, knocked out the B2M and TRAC genes, and performed LCK-T316I editing on the cells. Then the cells were divided into two portions, to one portion, 100 nM DS was added (experimental group), and to the other portion, a corresponding amount of DMSO was added as a control (control group). After 2 hr, to the experimental group and the control group, T cell activators (CD2/CD3/CD28, 25 ul/1M/mL) were added. After 48 hr of activation, the cells were infected with the anti-CD19 CAR molecule through lentivirus infection, and the medium was replaced 24 hr after the virus infection, and DS or DMSO was removed at the same time.

CD5-UCAR-T cells = conditions: reduced to 0 nM, Jurkat 4 hr
Procedure: Subsequently, they were treated overnight with dasatinib at a concentration of 50 nM or 25 nM, respectively. […] After 4 hr of co-incubation, CD107a release in CD8 and CAR double-positive cells was detected.
After 4 hr of co-incubation, CD107a release from CD8/CAR double-positive cells was detected.

[2] = cited from earlier work
anti-BCMA CAR-T cells = test: Luciferase killing assay of anti-BCMA CAR-T on luciferase-positive target cells; conditions: CBE3 and CBE3+sg12 groups, 100 nM dasatinib 12 hr, effector-to-target 1:1, 24 hr

With `Cc1nc(Nc2ncc(C(=O)Nc3c(C)cccc3Cl)s2)cc(N2CCN(CCO)CC2)n1` [dasatinib] the “positive CD107a translocation in CD8 and CAR double-positive cells” value (anti-CD19-CAR-T cells) was 50%, the CD107a positive rate [1] was “above 50%” and the “concentration that effectively inhibits NK cell activation in vitro (minimum)” value (NK cells; 0-50 nM overnight, K562 6 hr) was 30 nM. For the same compound, the “concentration enough to inhibit CD107a translocation and activation of NK cells” value (NK cells; 24 hr treatment, K562 5 hr) was 100 nM, the cells still activated (NK cells; NK cells without pretreatment, 7.5 nM dasatinib 4 hr, K562) was “about 4.4%” and the “release of CD107a” value (NK cells; NK cells, 25 nM and 50 nM pretreatment, changed to 12.5, 17.5 and 25 nM, K562) was “lower than 1%”. For the same compound, the “release of CD107a” value (NK cells; NK cells, 25 nM and 50 nM pretreatment, reduced to 7.5 nM, K562) was “lower than 1%”, the CD107a translocation (NK cells; NK cells, 100 nM and 200 nM dasatinib 24 hr, K562 5 hr) was 2% and the “release of CD107a” value (NK cells; NK cells, pretreatment with three dasatinib concentrations (0, 25, 50 nM), reduced to 0 nM, K562) was “above 58%”. The “positive CD107a release” value (NK cells; NK cells, repeat, 50 nM pretreatment, reduced to 0 nM, K562 4 hr) was 39.7%, the “basal CD107a translocation” value (NK cells; non-activated NK cells, 100 nM and 200 nM dasatinib 24 hr) was 2% and the “percentage of B2M and TRAC double knockout” value (T cells) was “more than 50%”. For the same compound, the “positive CD107a release” value (CD5-UCAR-T cells; CD5-CART, repeat, 50 nM pretreatment) was 12.1%, the “positive CD107a release” value (CD5-UCAR-T cells; sg12 control CD5-UCART, 50 nM pretreatment overnight) was 12% and the “positive CD107a release” value (CD5-UCAR-T cells; sg16 (LCK-T316I) CD5-UCART, 50 nM pretreatment) was 16%. The half-life in vivo [2] was 3 to 4 h and the “cytotoxicity of anti-BCMA CAR-T (luciferase value of RPMI-8226)” value (anti-BCMA CAR-T cells) was “significantly inhibited”.
